Measured values from ChEMBL document CHEMBL4406836, “The design of a cell-selective fowlicidin-1-derived peptide with both antimicrobial and anti-inflammatory activities” (Eur J Med Chem, 2019).
Converted amounts (≈) assume the structure as drawn. The source made the active and inactive calls. No cut-off for these calls is given here.

Experiments:
Pseudomonas aeruginosa = assay: Antibacterial activity against multidrug-resistant Pseudomonas aeruginosa CCARM 2095 assessed as reduction in bacterial growth incubated for 72 hrs by spectrophotometry; format: functional; conditions: CCARM 2095, 72 h
Staphylococcus aureus [1] = assay: Antibacterial activity against methicillin-resistant Staphylococcus aureus CCARM 3089 assessed as reduction in bacterial growth incubated for 72 hrs by spectrophotometry; format: functional; conditions: CCARM 3089, 72 h
Staphylococcus aureus [2] = assay: Induction of cytoplasmic membrane depolarization in Staphylococcus aureus at 2 times of MIC for a period of 600 sec by DiSC3-5-fluorescence based assay; format: functional, organism-based
Enterococcus faecium = assay: Antibacterial activity against vancomycin-resistant Enterococcus faecium ATCC 51559 assessed as reduction in bacterial growth incubated for 18 hrs by spectrophotometry based microtiter broth dilution method; format: functional; conditions: ATCC 51559, 18 h
Escherichia coli = assay: Induction of membrane integrity disruption in Escherichia coli at 2 times of MIC by propidium iodide staining based flow cytometry relative to control (reference value: 2.97 %); format: functional
Staphylococcus aureus [3] = assay: Induction of cytoplasmic membrane depolarization in Staphylococcus aureus at 2 times of MIC within 4 mins by SYTOX green-based assay; format: functional, organism-based

## O=C(N[C@H](CO)[C@H](O)c1ccc([N+](=O)[O-])cc1)C(Cl)Cl [CHLORAMPHENICOL]
Pseudomonas aeruginosa
  MIC: 1020 µM (≈ 331 µg/mL)
Staphylococcus aureus [1]
  MIC: 128 µM (≈ 41.4 µg/mL)

## O=C(O)c1cn(C2CC2)c2cc(N3CCNCC3)c(F)cc2c1=O [CIPROFLOXACIN]
Pseudomonas aeruginosa
  MIC: 512 µM (≈ 170 µg/mL)
Staphylococcus aureus [1]
  MIC: 1020 µM (≈ 339 µg/mL)

## CC[C@H](C)[C@H](NC(=O)CN)C(=O)NCC(=O)N[C@@H](C)C(=O)N[C@H](C(=O)N[C@@H](CC(C)C)C(=O)N[C@@H](CCCCN)C(=O)N[C@H](C(=O)N[C@@H](CC(C)C)C(=O)N[C@H](C(=O)N[C@H](C(=O)NCC(=O)N[C@@H](CC(C)C)C(=O)N1CCC[C@H]1C(=O)N[C@@H](C)C(=O)N[C@@H](CC(C)C)C(=O)N[C@H](C(=O)N[C@@H](CO)C(=O)N[C@@H](Cc1c[nH]c2ccccc12)C(=O)N[C@H](C(=O)N[C@@H](CCCCN)C(=O)N[C@@H](CCCNC(=N)N)C(=O)N[C@@H](CCCCN)C(=O)N[C@@H](CCCNC(=N)N)C(=O)N[C@@H](CCC(N)=O)C(=O)N[C@@H](CCC(N)=O)C(N)=O)[C@@H](C)CC)[C@@H](C)CC)[C@@H](C)O)[C@@H](C)O)C(C)C)C(C)C [MELITTIN]
Staphylococcus aureus [2]
  Activity: Active
Enterococcus faecium
  MIC: 8 µM (≈ 22.8 µg/mL)
Escherichia coli
  Activity: 75.38%
Staphylococcus aureus [3]
  Activity: Active

## Cc1onc(-c2ccccc2)c1C(=O)N[C@@H]1C(=O)N2[C@@H]1SC(C)(C)[C@@H]2C(=O)O [OXACILLIN]
Pseudomonas aeruginosa
  MIC: 512 µM (≈ 206 µg/mL)
Staphylococcus aureus [1]
  MIC: 512 µM (≈ 206 µg/mL)
